We go through 6 compounds from US8158646B2, “Antifungal and antiparasitic indoloquinoline derivates” (Florida Agricultural and Mechanical University, priority 2006, dated 2012).

SMILES strings stand for the structures. Converted amounts (≈) assume the structure as drawn. Like-named read-outs stand apart in the source and are kept apart here. A value given as a limit tells only on which side of the number the result lay.

Data set [1] deals with Cryptococcus neoformans ATCC 90113. The data set can be described thus: Antifungal susceptibility testing (modified NCCLS), Cn. The format is cell-based. To be noted: NA not defined in Table 1. The method, then:
(§1) Compounds were evaluated in vitro against a panel of microorganisms, including Candida albicans ATCC 90028 (Ca), C. krusei ATCC 6258 (Ck), Cryptococcus neoformans ATCC 90113 (Cn), Staphylococcus aureus ATCC 29213 (Sa), methicillin-resistant S. aureus ATCC 43300 (MRSA), Pseudomonas aeruginosa ATCC 27853 (Pa), Aspergilllus fumigatus ATCC 90906 (Aj), and Mycobacterium intracellulare ATCC 23068 (Mi) as previously reported [Guoyi, M.; Khan, S.; Jacob, M. R; Tekwani, B. L.; Li, Z.; Pasco, D. S.; Walker, L. A.; Khan, 1. A.; Antimicrob Agents Chemother, 2004, 48, 4450-4452]. All organisms were obtained from the American Type Culture Collection (Manassas, Va.). Susceptibility testing was performed using a modified version of the NCCLS methods [a) National Committee for Clinical Laboratory Standards. 2000. Methods for dilution antimicrobial susceptibility tests for bacteria that grow aerobically. M7-A5. National Committee for Clinical Laboratory Standards, Wayne, Pa. b) National Committee for Clinical Laboratory Standards, 1997, Reference method for broth dilution antifungal susceptibility testing of yeasts. Approved standard M27-A. National Committee for Clinical Laboratory Standards, Wayne, Pa. c) National Committee for Clinical Laboratory Standards. 2000. Susceptibility testing of mycobacteria, nocardia, and other aerobic actinomycetes, 2nd ed. Tentative standard M24- T2. National Committee for Clinical Laboratory Standards, Wayne, Pa.] for all organisms except for M intracellulare, for which the modified Alamar blue procedure described by Franzblau et al [1998. J Clin Microbiol, 36, 362-366] was followed. Briefly, samples (dissolved in DMSO) were serially diluted by using 0.9% saline and transferred in duplicate to 96-well microplates. Microbial inocula were prepared after comparison of the absorbance (at 630 nm) of cell suspensions to the 0.5 McFarland standard and dilution of the suspensions in broth (Sabouraud dextrose and cation-adjusted Mueller-Hinton broth [Difco] for the fungi and bacteria, respectively, and 5% Alamar blue [BioSource international] in Middlebrook 7H9 broth with oleic acid-albumin-dextrose-catalase enrichment for M intracellulare) to afford recommended inoculum sizes. Microbial inocula were added to the samples to achieve a final volume of 200 μl and final sample concentrations starting with 100 μg/ml. Growth, solvent, and medium controls were included on each test plate. The plates were read at either 630 nm or excitation and emission wavelengths of 544 and 590 nm (for Mi) prior to and after incubation. Percent growth was calculated and plotted with the concentration tested to afford the concentration that inhibits 50% of growth (IC50). Antimalarial and cytotoxicity testing were conducted in a similar manner as previously reported [a) Muhammad, 1.; Bedir, E.; Khan, S. I.; Tekwani, B. L.; Khan, I. A.; Takamatsu, S.; Pelletier, 1.; Walker, L. A. J Nat Prod. 2004, 67, 772-7. b) Muhammad, 1.; Dunbar, D. C.; Khan, S. 1.; Tekwani, B. L.; Bedir, E.; Takamatsu, S.; Ferreira, D, Walker L A., J Nat Prod. 2003, 66, 962-7].

Data set [2] deals with Candida albicans ATCC 90028. The data set can be described thus: Antifungal susceptibility testing (modified NCCLS), Ca. The format is cell-based. To be noted: NA not defined in Table 1. The method, then: as §1
Data set [3] concerns Aspergillus fumigatus ATCC 90906. Kind of data set: Antimicrobial susceptibility testing, Af. The format is cell-based. The method, then:
as §1, with “Antimalarial and cytotoxicity testing were conducted in a similar manner as previously reported [a) Muhammad, 1.; Bedir, E.; Khan, S. I.; Tekwani, B. L.; Khan, I. A.; Takamatsu, S.; Pelletier, 1.; Walker, L. A. J Nat Prod. 2004, 67, 772-7. b) Muhammad, 1.; Dunbar, D. C.; Khan, S. 1.; Tekwani, B. L.; Bedir, E.; Takamatsu, S.; Ferreira, D, Walker L A., J Nat Prod. 2003, 66, 962-7].” left out

The subject of a further data set is C. krusei ATCC 6258. Kind of data set: Antimicrobial susceptibility testing, Ck. The class given is cell-based, Candida krusei. The settings on record: Candida krusei. The method, then: as §1, with “National Committee for Clinical Laboratory Standards, Wayne, Pa.] for all organisms except for M intracellulare, for which the modified Alamar blue procedure described by Franzblau et al [1998. J Clin Microbiol, 36, 362-366] was followed. Briefly, samples (dissolved in DMSO) were serially diluted by using 0.9% saline and transferred in duplicate to 96-well microplates.” left out, “Microbial inocula were added to the samples to achieve a final volume of 200 μl and final sample concentrations starting with 100 μg/ml. Growth, solvent, and medium controls were included on each test plate.” left out, “Percent growth was calculated and plotted with the concentration tested to afford the concentration that inhibits 50% of growth (IC50). Antimalarial and cytotoxicity testing were conducted in a similar manner as previously reported [a) Muhammad, 1.; Bedir, E.; Khan, S. I.; Tekwani, B. L.; Khan, I. A.; Takamatsu, S.; Pelletier, 1.; Walker, L. A. J Nat Prod. 2004, 67, 772-7. b) Muhammad, 1.; Dunbar, D. C.; Khan, S. 1.; Tekwani, B. L.; Bedir, E.; Takamatsu, S.; Ferreira, D, Walker L A., J Nat Prod. 2003, 66, 962-7].” left out

For a further data set, the system named is Vero cells. The data set can be described thus: Cytotoxicity to mammalian cells (Vero). The class given is cell-based. The method, then:
(§2) All organisms were obtained from the American Type Culture Collection (Manassas, Va.). Susceptibility testing was performed using a modified version of the NCCLS methods [a) National Committee for Clinical Laboratory Standards. 2000. Methods for dilution antimicrobial susceptibility tests for bacteria that grow aerobically. M7-A5. […] Approved standard M27-A. National Committee for Clinical Laboratory Standards, Wayne, Pa. c) National Committee for Clinical Laboratory Standards. 2000. Susceptibility testing of mycobacteria, nocardia, and other aerobic actinomycetes, 2nd ed. Tentative standard M24- T2. […] Briefly, samples (dissolved in DMSO) were serially diluted by using 0.9% saline and transferred in duplicate to 96-well microplates. Microbial inocula were prepared after comparison of the absorbance (at 630 nm) of cell suspensions to the 0.5 McFarland standard and dilution of the suspensions in broth (Sabouraud dextrose and cation-adjusted Mueller-Hinton broth [Difco] for the fungi and bacteria, respectively, and 5% Alamar blue [BioSource international] in Middlebrook 7H9 broth with oleic acid-albumin-dextrose-catalase enrichment for M intracellulare) to afford recommended inoculum sizes. Microbial inocula were added to the samples to achieve a final volume of 200 μl and final sample concentrations starting with 100 μg/ml. Growth, solvent, and medium controls were included on each test plate. […] Antimalarial and cytotoxicity testing were conducted in a similar manner as previously reported [a) Muhammad, 1.; Bedir, E.; Khan, S. I.; Tekwani, B. L.; Khan, I. A.; Takamatsu, S.; Pelletier, 1.; Walker, L. A. J Nat Prod.

Data set [4] has as its system Plasmodium falciparum D6 Clone. The data set can be described thus: Antimalarial testing, D6 clone. The format is cell-based. To be noted: Plasmodium falciparum. On the procedure:
as §2

Data set [5] has as its system Plasmodium falciparum W2 Clone. The data set can be described thus: Antimalarial testing, W2 clone. The class given is cell-based. The settings on record: Plasmodium falciparum. On the procedure:
as §1

Data set [6] has as its system methicillin-resistant S. aureus ATCC 43300. Kind of data set: Antimicrobial susceptibility testing, MRSA. The format is cell-based, Staphylococcus aureus. To be noted: Methicillin-Resistant Staphylococcus aureus; read-out: IC50 MRSA. On the procedure: as §1, with “Antimalarial and cytotoxicity testing were conducted in a similar manner as previously reported [a) Muhammad, 1.; Bedir, E.; Khan, S. I.; Tekwani, B. L.; Khan, I. A.; Takamatsu, S.; Pelletier, 1.; Walker, L. A. J Nat Prod. 2004, 67, 772-7. b) Muhammad, 1.; Dunbar, D. C.; Khan, S. 1.; Tekwani, B. L.; Bedir, E.; Takamatsu, S.; Ferreira, D, Walker L A., J Nat Prod. 2003, 66, 962-7].” left out

In data set [7] the test system is Mycobacterium intracellulare ATCC 23068. The data set can be described thus: Modified Alamar blue procedure, Mi. The format is cell-based. To be noted: ATCC23068, read-out: IC50 Mi. The method, then: as §1, with “Antimalarial and cytotoxicity testing were conducted in a similar manner as previously reported [a) Muhammad, 1.; Bedir, E.; Khan, S. I.; Tekwani, B. L.; Khan, I. A.; Takamatsu, S.; Pelletier, 1.; Walker, L. A. J Nat Prod. 2004, 67, 772-7. b) Muhammad, 1.; Dunbar, D. C.; Khan, S. 1.; Tekwani, B. L.; Bedir, E.; Takamatsu, S.; Ferreira, D, Walker L A., J Nat Prod. 2003, 66, 962-7].” left out
On the technique in general: The colour change of resazurin is a common sign of viable cells or microbes.

Data set [8] deals with Pseudomonas aeruginosa ATCC 27853. Kind of data set: Antimicrobial susceptibility testing, Pa. The class given is cell-based. The settings on record: ATCC27853, NA = Not active up to 20 μg/ml. On the procedure: (§3) Compounds were evaluated in vitro against a panel of microorganisms, including Candida albicans ATCC 90028 (Ca), C. krusei ATCC 6258 (Ck), Cryptococcus neoformans ATCC 90113 (Cn), Staphylococcus aureus ATCC 29213 (Sa), methicillin-resistant S. aureus ATCC 43300 (MRSA), Pseudomonas aeruginosa ATCC 27853 (Pa), Aspergilllus fumigatus ATCC 90906 (Aj), and Mycobacterium intracellulare ATCC 23068 (Mi) as previously reported [Guoyi, M.; Khan, S.; Jacob, M. R; Tekwani, B. L.; Li, Z.; Pasco, D. S.; Walker, L. A.; Khan, 1. A.; Antimicrob Agents Chemother, 2004, 48, 4450-4452]. All organisms were obtained from the American Type Culture Collection (Manassas, Va.). Susceptibility testing was performed using a modified version of the NCCLS methods [a) National Committee for Clinical Laboratory Standards. 2000. […] Microbial inocula were prepared after comparison of the absorbance (at 630 nm) of cell suspensions to the 0.5 McFarland standard and dilution of the suspensions in broth (Sabouraud dextrose and cation-adjusted Mueller-Hinton broth [Difco] for the fungi and bacteria, respectively, and 5% Alamar blue [BioSource international] in Middlebrook 7H9 broth with oleic acid-albumin-dextrose-catalase enrichment for M intracellulare) to afford recommended inoculum sizes. […] The plates were read at either 630 nm or excitation and emission wavelengths of 544 and 590 nm (for Mi) prior to and after incubation. […]

The test system of data set [9] is Staphylococcus aureus ATCC 29213. The data set can be described thus: Antimicrobial susceptibility testing, Sa. The class given is cell-based. To be noted: ATCC29213. On the procedure: as §3

The melting point is the temperature, or range, at which the solid turns liquid. Turning to `c1ccc2c(c1)cc1[nH]c3ccccc3c1[n+]2CCCCC[n+]1c2ccccc2cc2[nH]c3ccccc3c21` (hydrate or solvate) [Compound 10], the melting point lay within 256 to 258 °C.
Still for that read-out and setting: with `C[n+]1c2ccccc2cc2c1c1ccccc1n2CCCCCn1c2ccccc2c2c1cc1ccccc1[n+]2C` (hydrate or solvate) [Compound 12] the figure was 238 to 240 °C.
With `C[C@@H]1[C@H](O)[C@@H](C)/C=C/C=C/C=C/C=C/C=C/C=C/C=C/[C@H](O[C@@H]2O[C@H](C)[C@@H](O)[C@H](N)[C@@H]2O)C[C@@H]2O[C@](O)(C[C@@H](O)C[C@@H](O)[C@H](O)CC[C@@H](O)C[C@@H](O)CC(=O)O[C@H]1C)C[C@H](O)[C@H]2C(=O)O` [Amphotericin B, reference compound], in data set [1], the “IC50 Cn” value was found to be 0.6 µg/mL (≈ 0.649 µM). Moreover, the “IC50 Ca” value in data set [2] is 0.1 µg/mL (≈ 0.108 µM). Further, in data set [3], the “IC50 Af” value worked out at 0.31 µg/mL (≈ 0.335 µM). In addition, the “IC50 Ck” value with C. krusei ATCC 6258 stood at 0.60 µg/mL (≈ 0.649 µM). Further, in the data set with Vero cells, the “Cytotoxicity (Vero) TC50” value was 6.5 µg/mL.
The IC50 is the point on the concentration scale where inhibition reaches its midpoint. Turning to `C[C@@H]1CC[C@H]2[C@@H](C)C(=O)O[C@@H]3O[C@@]4(C)CC[C@@H]1[C@]32OO4` [Artemisinin, reference compound], the IC50 in data set [4] (D6 Clone, read-out: Plasmodium falciparum IC50 Pf (D6)) was determined as 0.0085 µg/mL (≈ 0.0301 µM); in data set [5] (W2 Clone, NA = Not active up to 20 μg/ml, read-out: Plasmodium falciparum IC50 Pf (W2)), 0.0031 µg/mL (≈ 0.011 µM). Besides, the “Cytotoxicity (Vero) TC50” value in the data set with Vero cells (African green monkey) is more than 23.8 µg/mL.
Regarding `CCN(CC)CCCC(C)Nc1ccnc2cc(Cl)ccc12` (centres unmarked) [Chloroquine, reference compound], the half-inhibitory concentration (IC50) in data set [4] (D6, read-out: Plasmodium falciparum IC50 Pf (D6)) is 0.017 µg/mL (≈ 0.0531 µM); in data set [5] (W2, read-out: Plasmodium falciparum IC50 Pf (W2)), 0.075 µg/mL (≈ 0.234 µM). Moreover, the “Cytotoxicity (Vero) TC50” value in the data set on Vero cells (Vero cells, NC = No Cytotoxicity observed up to 5 μg/ml) was more than 23.8 µg/mL.
As to `O=C(O)c1cn(C2CC2)c2cc(N3CCNCC3)c(F)cc2c1=O` [Ciprofloxacin, reference compound], the IC50 amounted to 0.15 µg/mL (≈ 0.453 µM) in data set [6], 0.2 µg/mL (≈ 0.604 µM) in data set [7], 0.06 µg/mL (≈ 0.181 µM) in data set [8] and 0.1 µg/mL (≈ 0.302 µM) in [9].
